For experiment [1], the system named is desiccating stress-induced dry eye. Nature of the experiment: Tear production by phenol red thread test in CEC dry eye mice. Format: in vivo, C57BL/6 mice. The conditions noted are these: for ability to induce tear production (alanine scanning of the 29mer): CEC dry eye mice, phenol red thread method (FIG. 9). On the procedure: (§1) Dry eye was induced by placing mice in a controlled environment chamber (CEC) as previously described (Barabino et al., 2005). Briefly, mice placed in the CEC were exposed to a relative humidity (RH)<25%, temperature of 20 to 22° C., and airflow of 15 L/min, 12 hours per day. Non-stressed (NS) mice without stress-induced dry eye were kept in a normal environment (RH >50%, no air flow, temperature of 21-23° C.) for the same duration. Corneal fluorescein staining and
Tear production was measured with phenol red-impregnated cotton threads (Zone-Quick; Oasis, Glendora, CA). The validity of this test in mice was performed as previously described (Dursun et al., 2002). The threads were held with jeweler forceps and placed in the lateral canthus for 60 seconds. The tear production is expressed in millimeters of thread that is wet by the tear and turned red.
To determine whether PDSP have therapeutic effects in a desiccating stress (DS)-induced ocular surface defects, mice were housed at controlled environment chamber (CEC) for 14 days to create ocular surface disruption. After 14 days in CEC, we used mice with fluorescence scores that are above 2 for the first experiments (FIG. 1A). […]

In the next experiment the test system is C2C12 cells. The experiment is described as follows: Cell viability of C2C12 cells in culture (MTT assay), alanine scanning. It counts as cell-based. The conditions noted are these: C2C12 cell cultures (FIG. 10). On the procedure: This was tested with cell viability in cell cultures. […] Cell viability may be assessed with staining and cell number counts or with MTT assays. These techniques are well known in the art.

The subject of experiment [2] is desiccating stress-induced dry eye. The experiment is described as follows: Corneal fluorescein staining in desiccating stress-induced dry eye (CEC) mice. The conditions noted are these: therapeutic: CEC 14 days to induce dry eye, then peptide on the eyes for 5 days. It counts as in vivo, C57BL/6 mice. Here is the method:
In an animal model for dry eye diseases, mice were placed in a controlled environment chamber (CEC) to induce dry eyes as previously described (Barabino et al., 2005). Mice placed in the CEC were exposed to a relative humidity (RH)<25%, temperature of 20 to 22° C., with an airflow of 15 L/min, 12 hours per day. Non-Stressed mice were kept in a normal environment (RH >50%, no air flow, temperature of 21-23° C.) for the same duration. After 14 days, non-stressed mice were treated with vehicle, while the stressed mice were treated with either a test peptide (e.g., the 29mer PDSP) or vehicle solution (Vehicle group) for 5 days. Then, the cornea was examined with fluorescein staining.
Seven to 8-week-old female C57BL/6 mice were used for these experiments. Experimental procedures were approved by the Mackay Memorial Hospital Review Board and conducted according to the ARVO Statement for the Use of Animals in Ophthalmic and Vision Research.
as §1
Animals were anesthetized by an intraperitoneal injection of a mixture of zoletil (6 mg/kg) and xylazine (3 mg/kg). Corneal epithelial injury was determined by staining with topical fluorescein (Fluor-I-Strip, Ayerst Laboratories, Philadelphia, Pa.). Corneal fluorescein staining was examined with a slit-lamp biomicroscope under cobalt blue light and photographed with a digital camera. Dye staining of the cornea was scored in a manner as follows: score 0 for no punctuate staining; score 1 when less than one third of the cornea was stained; score 2 when two thirds or less was stained; and score 3 when more than two thirds was stained (Horwath-Winter J 2013).
To determine whether PDSP have therapeutic effects in a desiccating stress (DS)-induced ocular surface defects, mice were housed at controlled environment chamber (CEC) for 14 days to create ocular surface disruption. After 14 days in CEC, we used mice with fluorescence scores that are above 2 for the first experiments (FIG. 1A). Subsequently, dry eyes were treated topically with PDSP at 25-200 μM (3 times/day) or PDSP vehicle (1% CMC in BSS) for another 5 days while maintaining the same desiccating stress protocol.
To investigate whether the PDSP can suppress DS-induced corneal epithelial disruption, we applied the 14-day desiccating stress protocol to mice, and treated these mice topically with PDSP 3 times a day.

Experiment [3] has the same test system. Described as above. Format: in vivo, C57BL/6 mice. The conditions noted are these: CEC 14 days, then peptide for 3 days (FIG. 11); listed as mouse PDSP.

Entries after “also recorded” stand apart in the source; their conditions may differ.

As to “A96G: human PDSP 29mer with glycine substitution at residue 4 (A96) (Ac-SLGGEQRTESIIHRALYYDLISSPDIHGT-NH2; UniProt P36955 93-121, looked up, variant A96G)”, the “ability to induce tear production (alanine scanning of the 29mer)” value (from here on “ability to induce tear production”) in experiment [1] is given as “substantial losses of abilities of PDSP to induce tear production”. Besides, the “ability to sustain/enhance viabilities of the cells (alanine scanning of the 29mer)” value (“ability to sustain/enhance viabilities” for short) with C2C12 cells is reported as “substantially abolished”. Moreover, the “corneal surface damage by fluorescein staining” value (shortened to “corneal surface damage”) in experiment [2] was “substantial loss of PDSP activity”.

As to “I104A: human PDSP 29mer with alanine substitution at residue 12 (I104) (SLGAEQRTESIAHRALYYDLISSPDIHGT; UniProt P36955 93-121, looked up, variant I104A)”, the “ability to induce tear production” value in experiment [1] is on record as “substantial losses of abilities of PDSP to induce tear production”. In addition, the “ability to sustain/enhance viabilities” value with C2C12 cells was “substantially abolished”. In addition, in experiment [2], the “corneal surface damage” value is recorded as “substantial loss of PDSP activity”.

With “Q98A: human PDSP 29mer with alanine substitution at residue 6 (Q98) (SLGAEARTESIIHRALYYDLISSPDIHGT; UniProt P36955 93-121, looked up, variant Q98A)”, the “ability to induce tear production” value in experiment [1] is listed as “substantial losses of abilities of PDSP to induce tear production”. In the experiment with C2C12 cells, the “ability to sustain/enhance viabilities” value was “substantially abolished”. In experiment [2], the “corneal surface damage” value was “substantial loss of PDSP activity”.

Regarding “R106A: human PDSP 29mer with alanine substitution at residue 14 (R106) (SLGAEQRTESIIHAALYYDLISSPDIHGT; UniProt P36955 93-121, looked up, variant R106A)”, the “ability to induce tear production” value in experiment [1] is reported as “substantial losses of abilities of PDSP to induce tear production”. Moreover, the “ability to sustain/enhance viabilities” value in the experiment on C2C12 cells is reported as “substantially abolished”. Moreover, the “corneal surface damage” value in experiment [2] was “substantial loss of PDSP activity”.

“moPDSP 29mer: corresponding mouse sequence SLGAEHRTESVIHRALYYDLITNPDIHST (SEQ ID NO:5) (listed as Mus musculus)”: the “tear production (phenol red thread), human vs mouse PDSP” value in experiment [1] (CEC 14 days, then peptide for 3 days (FIG. 12), listed as mouse PDSP) was “capable of restore; also recorded: improved tear productions to the same extent”. Further, the “corneal damage by corneal fluorescein staining, human vs mouse 29mer” value in experiment [3] is on record as “capable of restore the ocular surface damages”.
